Source: patent publication US8293781B2, “Indole derivatives having cPLA2 inhibiting activity and applications and production methods of the same” (Daiichi Sankyo Company, Limited, priority 2007, dated 2012)
Counter-ions that a name gives are not always drawn.

What follows are compounds tested against T1, cPLA2 crudely purified from the cytoplasm fraction of U937 (Homo sapiens, UniProt P47712) (assay: Measurement of cPLA2 inhibitory activity (release of [14C]-arachidonic acid from phosphatidyl choline liposome)). Conditions: not given.
T1 construct: cPLA2 crudely purified from the cytoplasm fraction of U937; endogenous in cells; host or cells: U937 cells (cytoplasm fraction, crude purification)
T1 sequence (P47712 1-749): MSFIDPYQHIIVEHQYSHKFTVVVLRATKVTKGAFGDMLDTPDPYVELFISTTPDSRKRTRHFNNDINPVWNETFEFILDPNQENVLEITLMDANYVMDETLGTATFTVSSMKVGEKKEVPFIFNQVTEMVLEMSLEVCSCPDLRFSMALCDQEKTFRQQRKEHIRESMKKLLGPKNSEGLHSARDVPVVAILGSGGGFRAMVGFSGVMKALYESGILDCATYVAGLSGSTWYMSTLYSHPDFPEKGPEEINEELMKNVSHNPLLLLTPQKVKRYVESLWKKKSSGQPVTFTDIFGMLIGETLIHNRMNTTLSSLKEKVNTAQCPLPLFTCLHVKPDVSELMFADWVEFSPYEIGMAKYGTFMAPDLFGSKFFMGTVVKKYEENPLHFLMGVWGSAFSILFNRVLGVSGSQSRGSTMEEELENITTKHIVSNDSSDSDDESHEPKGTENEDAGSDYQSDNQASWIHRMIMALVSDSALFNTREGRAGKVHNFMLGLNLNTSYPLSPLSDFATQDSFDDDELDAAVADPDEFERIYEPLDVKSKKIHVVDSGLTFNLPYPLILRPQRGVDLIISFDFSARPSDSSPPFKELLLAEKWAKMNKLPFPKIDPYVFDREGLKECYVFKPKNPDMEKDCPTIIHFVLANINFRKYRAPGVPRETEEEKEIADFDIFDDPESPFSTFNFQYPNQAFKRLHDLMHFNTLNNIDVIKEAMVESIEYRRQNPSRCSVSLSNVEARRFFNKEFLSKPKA
Assay type: biochemical
Description: The cPLA2 inhibitory activity was measured based on the method described in the document [See H. Naraba et al., J. Immunol. 160, 2974-2982 (1998)] and modified in the following way.
A DMSO solution of the present invitation compounds was diluted to 2.5 times the final concentration with the assay buffer (4 mM CaCl2, 2 mM dithiothreitol, 150 mM NaCl, 50 mM HEPES buffer solution (pH7.5)) containing 0.55 mg/ml BSA. To 20 μl of this, cPLA2 crudely purified from the cytoplasm fraction of U937 was added in an amount of 10 μl after dilution by an assay buffer solution containing 0.55 mg/ml BSA. A liposome prepared by ultrasonically treating L-α-1-palmitoyl-2-[14C]arachidonyl-phosphatidyl choline (made by PerkinElmer) and adjusted by the assay buffer solution to a concentration of phosphatidyl choline of 10 μM was added and stirred in by an amount of 20 μl and the mixture was reacted at 37° C. for 60 minutes. The [^14C]-arachidonic acid released due to the reaction was extracted based on the method described in the documents [see V. P. Dole et al., J. Biol. Chem. 235, 2595 (1960)], was added to Lumaplate® (made by PerkinElmer), dried, then measured by Topcount® (made by PerkinElmer). Except for not adding the present invention compounds, the same procedure was performed as the above to obtain the enzyme control. Except for not adding the invention compounds and not adding the enzyme, the same procedure was followed as above to obtain a negative control. The inhibiting activity was expressed as a percent (%) of the value minus the negative control with respect to the value of the enzyme control minus the negative control. From this, the 50% inhibiting concentration (IC50, μM) was calculated.

First: COc1ccc(CC(=O)c2cn(-c3ccccc3)c3ccc(CCC(=O)O)cc23)cc1 [Example 65, 3-{3-[(4-methoxyphenyl)acetyl]-1-phenyl-1H-indol-5-yl}propanoic acid]
Second: O=C(O)CCc1ccc2c(c1)c(Cc1cccc3ccccc13)cn2-c1ccccc1 [Example 51, 3-[3-(1-naphthylmethyl)-1-phenyl-1H-indol-5-yl]propanoic acid]
The IC50 of the first is 2.7-fold higher: 1910 nM for the first, 704 nM for the second.

Same assay, conditions: cPLA2 from U937 cytoplasm fraction, [14C]arachidonyl-phosphatidyl choline liposome, 37° C., 60 minutes; read-out: cPLA2 inhibitory activity, 50% inhibiting concentration IC50

Compared with `O=C(O)CCc1ccc2c(c1)c(CCc1ccccc1)cn2-c1cc(F)c(O)c(F)c1` [Example 289, 3-[1-(3,5-difluoro-4-hydroxyphenyl)-3-(2-phenylethyl)-1H-indol-5-yl]propanoic acid], `O=C(O)CCc1ccc2c(c1)c(CCc1ccccc1)cn2-c1cccc(F)c1` [Example 183, 3-[1-(3-fluorophenyl)-3-(2-phenylethyl)-1H-indol-5-yl]propanoic acid] is 2.6-fold lower in IC50: 182 nM for the first, 70 nM for the second. The second is the more potent here.

`O=C(O)CCc1ccc2c(c1)c(CCc1ccccc1)cn2-c1ccc(OCCCc2ccncc2)cc1` [Example 260, 3-{3-(2-phenylethyl)-1-[4-(3-pyridin-4-ylpropoxy)phenyl]-1H-indol-5-yl}propanoic acid] and `O=C(O)CCc1ccc2c(c1)c(CCc1ccccc1)cn2-c1ccc(OCc2cccnc2)cc1` [Example 248, 3-{3-(2-phenylethyl)-1-[4-(pyridin-3-ylmethoxy)phenyl]-1H-indol-5-yl}propanoic acid] are within 1.5-fold of each other in IC50: 8 nM for the first, 7 nM for the second.

Compared with `O=C(O)CCc1ccc2c(c1)c(CCc1ccccc1)cn2-c1ccc(OC2CCCCO2)cc1` (centres unmarked) [Example 213, 3-{3-(2-phenylethyl)-1-[4-(tetrahydro-2H-pyran-2-yloxy)phenyl]-1H-indol-5-yl}propanoic acid], `O=C(O)CCc1ccc2c(c1)c(CCc1ccccc1)cn2-c1ccc(OC2CCOCC2)cc1` [Example 225, 3-{3-(2-phenylethyl)-1-[4-(tetrahydro-2H-pyran-4-yloxy)phenyl]-1H-indol-5-yl}propanoic acid] is 1.9-fold lower in IC50: 15 nM for the first, 8 nM for the second.

Going from `O=C(O)/C=C/c1ccc2c(c1)c(CCc1ccccc1)cn2-c1ccccc1` [Example 15, (2E)-3-[1-phenyl-3-(2-phenylethyl)-1H-indol-5-yl]-2-propenoic acid] to `O=C(O)/C=C/c1ccc2c(c1)c(CCc1ccccc1)cn2-c1ccc(OCc2ccccc2)cc1` [Example 144, (2E)-3-{1-[4-(benzyloxy)phenyl]-3-(2-phenylethyl)-1H-indol-5-yl}-2-propenoic acid], the IC50 falls from 316 nM to 42 nM (7.5-fold). The second is the more potent here.

`CN(C)c1ccc(-n2cc(CCc3ccccc3)c3cc(CCC(=O)O)ccc32)cc1` [Example 85, 3-{1-[4-(dimethylamino)phenyl]-3-(2-phenylethyl)-1H-indol-5-yl}propanoic acid] and `N#Cc1ccc(-n2cc(CCc3ccccc3)c3cc(CCC(=O)O)ccc32)cc1` [Example 81, 3-[1-(4-cyanophenyl)-3-(2-phenylethyl)-1H-indol-5-yl]propanoic acid] are within 1.5-fold of each other in IC50: 77 nM for the first, 58 nM for the second.

Compared with `N#CNC(=O)CCc1ccc2c(c1)c(CCc1ccccc1)cn2-c1ccccc1` [Example 18, N-cyano-3-[1-phenyl-3-(2-phenylethyl)-1H-indol-5-yl]propanamide], `N#Cc1cccc(-n2cc(CCc3ccccc3)c3cc(CCC(=O)O)ccc32)c1` [Example 173, 3-[1-(3-cyanophenyl)-3-(2-phenylethyl)-1H-indol-5-yl]propanoic acid] is 3.8-fold lower in IC50: 976 nM for the first, 259 nM for the second. The second is the more potent here.

`CC(=O)Nc1ccc(-n2cc(CCc3ccccc3)c3cc(CCC(=O)O)ccc32)cc1` [Example 91, 3-{1-[4-(acetylamino)phenyl]-3-(2-phenylethyl)-1H-indol-5-yl}propanoic acid 2-amino-2-(hydroxymethyl)propane-1,3-diol salt (1:1)] and `CC(=O)Nc1cccc(-n2cc(CCc3ccccc3)c3cc(CCC(=O)O)ccc32)c1` [Example 169, 3-{1-[3-(acetylamino)phenyl]-3-(2-phenylethyl)-1H-indol-5-yl}propanoic acid] are within 1.5-fold of each other in IC50: 207 nM for the first, 205 nM for the second.

First: O=C(O)CCc1ccc2c(c1)c(CCc1ccccc1)cn2-c1ccc(C(F)(F)F)cc1 [Example 207, 3-{3-(2-phenylethyl)-1-[4-(trifluoromethyl)phenyl]-1H-indol-5-yl}propanoic acid]
Second: O=C(O)CCc1ccc2c(c1)c(CCc1ccccc1)cn2-c1ccc(C(=O)O)cc1 [Example 79, 4-[5-(2-carboxyethyl)-3-(2-phenylethyl)-1H-indol-1-yl]benzoic acid]
The IC50 of the first is 2.8-fold lower: 64 nM for the first, 180 nM for the second. The first is the more potent here.

First: O=C(O)CCc1ccc2c(c1)c(CCc1ccccn1)cn2-c1ccc(Oc2ccccc2)cc1 [Example 275, 3-[1-(4-phenoxyphenyl)-3-(2-pyridin-2-ylethyl)-1H-indol-5-yl]propanoic acid hydrochloride]
Second: O=C(O)CCc1ccc2c(c1)c(CCc1ccccc1)cn2-c1ccc(Cc2ccccn2)cc1 [Example 235, 3-{3-(2-phenylethyl)-1-[4-(pyridin-2-ylmethyl)phenyl]-1H-indol-5-yl}propanoic acid hydrochloride]
The IC50 of the first is 10-fold lower: 12 nM for the first, 122 nM for the second. The first is the more potent here.

`COCCc1ccc(-n2cc(CCc3ccccc3)c3cc(CCC(=O)O)ccc32)cc1` [Example 201, 3-{1-[4-(2-methoxyethyl)phenyl]-3-(2-phenylethyl)-1H-indol-5-yl}propanoic acid] and `O=C(O)CCc1ccc2c(c1)c(CCc1ccccc1)cn2-c1ccc(COC(F)F)cc1` [Example 293, 3-[1-{4-[(difluoromethoxy)methyl]phenyl}-3-(2-phenylethyl)-1H-indol-5-yl]propanoic acid] are within 1.5-fold of each other in IC50: 219 nM for the first, 191 nM for the second.

Going from `Nc1ccc(-n2cc(CCc3ccccc3)c3cc(CCC(=O)O)ccc32)nc1` [Example 135, 3-[1-(5-amino-2-pyridinyl)-3-(2-phenylethyl)-1H-indol-5-yl]propanoic acid] to `CC(=O)Nc1ccc(-n2cc(CCc3ccccc3)c3cc(CCC(=O)O)ccc32)nc1` [Example 140, 3-{1-[5-(acetylamino)-2-pyridinyl]-3-(2-phenylethyl)-1H-indol-5-yl}propanoic acid], the IC50 falls from 277 nM to 117 nM (2.4-fold).

Compared with `O=C(O)/C=C/c1ccc2c(c1)c(C(=O)C1(c3ccccc3)CC1)cn2-c1ccccc1` [Example 39, (2E)-3-{1-phenyl-3-[(1-phenylcyclopropyl)carbonyl]-1H-indol-5-yl}-2-propenoic acid], `CCC(C(=O)c1cn(-c2ccccc2)c2ccc(/C=C/C(=O)O)cc12)c1ccccc1` (centres unmarked) [Example 35, (2E)-3-[1-phenyl-3-(2-phenylbutanoyl)-1H-indol-5-yl]-2-propenoic acid] is 1.9-fold lower in IC50: 10800 nM for the first, 5810 nM for the second. The second is the more potent here.

Going from `CN(C)C(=O)c1cccc(-n2cc(CCc3ccccc3)c3cc(CCC(=O)O)ccc32)c1` [Example 314, 3-{1-[3-(dimethylcarbamoyl)phenyl]-3-(2-phenylethyl)-1H-indol-5-yl}propanoic acid] to `Cc1ccccc1-n1cc(CCc2ccccc2)c2cc(CCC(=O)O)ccc21` [Example 99, 3-[1-(2-methylphenyl)-3-(2-phenylethyl)-1H-indol-5-yl]propanoic acid 2-amino-2-(hydroxymethyl)propane-1,3-diol salt (1:1)], the IC50 falls from greater than 3000 nM to 288 nM.

Going from `CC(Cc1cn(-c2ccccc2)c2ccc(CCC(N)=O)cc12)c1ccccc1` (centres unmarked) [Example 29, 3-[1-phenyl-3-(2-phenylpropyl)-1H-indol-5-yl]propanamide] to `Nc1ccccc1-n1cc(CCc2ccccc2)c2cc(CCC(=O)O)ccc21` [Example 151, 3-[1-(2-aminophen 1)-3-(2-phenylethyl)-1H-indol-5-yl]propanoic acid], the IC50 falls from 21300 nM to 185 nM (120-fold).

`CCOc1ccc(-n2cc(CCc3ccccc3)c3cc(CCC=O)ccc32)cc1` [Example 117] and `O=C(O)CCc1ccc2c(c1)c(CCc1ccccc1)cn2-c1ccc(C(=O)N2CCOCC2)cc1` [Example 312, 3-{1-[4-(morpholin-4-ylcarbonyl)phenyl]-3-(2-phenylethyl)-1H-indol-5-yl}propanoic acid] are within 1.5-fold of each other in IC50: 527 nM for the first, 404 nM for the second.
